# Results taken from US20080146500A1, “Selective Vpac2 Receptor Peptide Agonists” (priority 2004, published 2008).
# Ends that are not written are not given here.
# Tests used:
# Normal Wistar rats = test: Intravenous glucose tolerance test (IVGTT), serum glucose and insulin; assay type: in vivo, rat
# Protocol: Intravenous glucose tolerance test (IVGTT): Normal Wistar rats are fasted overnight and are anesthetized prior to the experiment. A blood sampling catheter is inserted into the rats. The compound is given in the jugular vein. Blood samples are taken from the carotid artery. A blood sample is drawn immediately prior to the injection of glucose along with the compound. After the initial blood sample, glucose mixed with compound is injected intravenously (i.v.). Compound may also be injected intravenously or subcutaneously prior to the glucose challenge. A glucose challenge of 0.5 g/kg body weight is given, injecting a total of 1.5 mL vehicle with glucose and agonist per kg body weight. The peptide concentrations are varied to produce the desired dose in μg/kg. Blood samples are drawn at 2, 4, 6 and 10 minutes after giving glucose. The control group of animals receives the same vehicle along with glucose, but with no compound added. In some instances, a 30 minute post-glucose blood sample is drawn. Aprotinin is added to the blood sample (250-500 kIU/ml blood). The serum is then analyzed for glucose and insulin using standard methodologies.
# The assay uses a formulated and calibrated peptide stock in PBS. Normally, this stock is a prediluted 100 μM stock. However, a more concentrated stock with approximately 1 mg agonist per 1 mL is used. The specific concentration is always known. Variability in the maximal response is mostly due to variability in the vehicle dose.
# ZDF rats = test: Glucose lowering in conscious food-deprived diabetic ZDF rats; assay type: in vivo, rat
# Protocol: Glucose lowering in diabetic ZDF rats. ZDF rats, 8-9 weeks old with fed glucose levels of approximately 300 mg/dl are used for this experiment. The animals are randomised into control (vehicle) and treatment group(s) on the day of the experiment and are conscious throughout the experiment. The compound is injected intravenously at the start of the experiment and blood samples are drawn from the tail vein immediately prior to compound injection and then 0.5, 1, 2, 3, 4 and 24 h after compound injection. The animals are deprived of food during the first 2 or 4 h of the experiment. The blood samples are collected in EDTA tubes, aprotinin added and immediately put on ice pending insulin and glucose analysis using standard methods.
# [1] = 10 μg/kg iv, 0 h (immediately prior to injection)
# [2] = 10 μg/kg iv, 0.5 h after injection
# [3] = 10 μg/kg iv, 1 h after injection
# [4] = 10 μg/kg iv, 2 h after injection
# [5] = 10 μg/kg iv, 4 h after injection (food access after 2 h)
# [6] = 10 μg/kg iv, 24 h after injection (food access after 2 h)
# [7] = 30 μg/kg iv, 0 h (immediately prior to injection)
# [8] = 30 μg/kg iv, 0.5 h after injection
# [9] = 30 μg/kg iv, 1 h after injection
# [10] = 30 μg/kg iv, 2 h after injection
# [11] = 30 μg/kg iv, 4 h after injection (food access after 2 h)
# [12] = 30 μg/kg iv, 24 h after injection (food access after 2 h)
# [13] = 100 μg/kg iv, 0 h (immediately prior to injection)
# [14] = 100 μg/kg iv, 1 h after injection
# [15] = 100 μg/kg iv, 2 h after injection
# [16] = 100 μg/kg iv, 3 h after injection
# [17] = 100 μg/kg iv, 4 h after injection
# [18] = 100 μg/kg iv, 24 h after injection (food access after 4 h)
substance,measurement,setting,value
"P137: PEGylated material obtained from P120 and methoxy-PEG2-MAL-40K (HSDAVFTDNYTRLRKQVAAKKYLQSIKNKRYGGPSSGAPPPC; also: PEGylated with methoxy-PEG2-MAL-40K, site not given here) [Agonist P137]","% increase AUC (insulin, 0-10 min after glucose)","Normal Wistar rats; Dose = 10 μg/kg iv, time between glucose & compound 0 h",+366%
same,"% increase AUC (insulin, 0-10 min after glucose)","Normal Wistar rats; Dose = 10 μg/kg iv, time between glucose & compound 4 h",+193%
same,"% increase AUC (insulin, 0-10 min after glucose)","Normal Wistar rats; Dose = 30 μg/kg iv, time between glucose & compound 4 h",+321%
same,"% increase AUC (insulin, 0-10 min after glucose)","Normal Wistar rats; Dose = 100 μg/kg iv, time between glucose & compound 4 h",+487%
same,glucose,ZDF rats; [1],344 mg/dL
same,insulin,ZDF rats; [1],12.5 ng/mL
same,glucose,ZDF rats; [2],277 mg/dL
same,insulin,ZDF rats; [2],21.2 ng/mL
same,glucose,ZDF rats; [3],244 mg/dL
same,insulin,ZDF rats; [3],18.5 ng/mL
same,glucose,ZDF rats; [4],199 mg/dL
same,insulin,ZDF rats; [4],20.0 ng/mL
same,glucose,ZDF rats; [5],361 mg/dL
same,insulin,ZDF rats; [5],18.5 ng/mL
same,glucose,ZDF rats; [6],336 mg/dL
same,insulin,ZDF rats; [6],15.0 ng/mL
same,glucose,ZDF rats; [7],329 mg/dL
same,insulin,ZDF rats; [7],10.9 ng/mL
same,glucose,ZDF rats; [8],254 mg/dL
same,insulin,ZDF rats; [8],27.0 ng/mL
same,glucose,ZDF rats; [9],218 mg/dL
same,insulin,ZDF rats; [9],23.7 ng/mL
same,glucose,ZDF rats; [10],156 mg/dL
same,insulin,ZDF rats; [10],23.1 ng/mL
same,glucose,ZDF rats; [11],347 mg/dL
same,insulin,ZDF rats; [11],20.8 ng/mL
same,glucose,ZDF rats; [12],347 mg/dL
same,insulin,ZDF rats; [12],16.0 ng/mL
same,glucose,ZDF rats; [13],307 mg/dL
same,insulin,ZDF rats; [13],17.8 ng/mL
same,glucose,ZDF rats; [14],362 mg/dL
same,insulin,ZDF rats; [14],19.9 ng/mL
same,glucose,ZDF rats; [15],360 mg/dL
same,insulin,ZDF rats; [15],15.9 ng/mL
same,glucose,ZDF rats; [16],323 mg/dL
same,insulin,ZDF rats; [16],15.4 ng/mL
same,glucose,ZDF rats; [17],304 mg/dL
same,insulin,ZDF rats; [17],15.1 ng/mL
same,glucose,ZDF rats; [18],400 mg/dL
same,insulin,ZDF rats; [18],11.1 ng/mL
